In patent US8349836B2, “Phthalazine derivatives as inhibitors of protein kinase” (priority 2006, dated 2013):

Target: p70S6K(h) (Homo sapiens, UniProt P23443)
Assay: Enzyme Inhibition Assay (p70S6K(h))
Assay type: biochemical
Settings: at 0.3 μM concentration
Method: Enzyme Inhibition Assay (p70S6K(h))
In a final reaction volume of 25 uL, p70S6K(h) (5-10 mU) is incubated with 8 mM MOPS pH 7.0, 0.2 mM EDTA, 100 iM KKRNRTLTV, 10 mM MgAcetate and [gamma-33P-ATP] (specific activity approx. 500 cpm/pmol, concentration as required). The reaction is initiated by the addition of the MgATP mix. After incubation for 40 minutes at room temperature, the reaction is stopped by the addition of 5 uL of a 3% phosphoric acid solution. 10 uL of the reaction is then spotted onto a P30 filtermat and washed three times for 5 minutes in 75 mM phosphoric acid and once in methanol prior to drying and scintillation counting.

Chain of p70S6K(h) (P23443 whole entry): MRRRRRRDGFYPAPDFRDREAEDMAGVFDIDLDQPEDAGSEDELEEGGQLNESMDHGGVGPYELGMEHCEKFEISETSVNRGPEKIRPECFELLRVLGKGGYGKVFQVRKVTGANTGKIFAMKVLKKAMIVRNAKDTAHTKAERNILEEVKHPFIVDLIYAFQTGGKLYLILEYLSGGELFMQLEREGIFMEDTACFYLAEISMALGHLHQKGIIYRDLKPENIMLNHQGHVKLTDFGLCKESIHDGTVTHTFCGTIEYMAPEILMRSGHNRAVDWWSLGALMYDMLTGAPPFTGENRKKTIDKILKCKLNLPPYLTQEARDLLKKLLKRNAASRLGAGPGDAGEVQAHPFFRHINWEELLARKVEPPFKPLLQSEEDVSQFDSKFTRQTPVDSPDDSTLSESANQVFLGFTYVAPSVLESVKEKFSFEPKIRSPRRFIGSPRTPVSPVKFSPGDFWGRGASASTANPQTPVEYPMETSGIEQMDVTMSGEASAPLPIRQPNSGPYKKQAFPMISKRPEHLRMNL

inhibition at 0.3 µM	Structure (SMILES)
> 50%	O=c1[nH]nc(Cl)c2cc(NCc3cccc4c3OCCCO4)ccc12 [Example 107, 4-Chloro-6-[(3,4-dihydro-2H-benzo[b][1,4]dioxepin-6-ylmethyl)-amino]-2H-phthalazin-1-one]
> 50%	O=C(Nc1cccc(C(F)(F)F)c1)c1ccc2c(O)nnc(I)c2c1 [Example 42, 4-Iodo-1-hydroxy-phthalazine-6-carboxylic acid (3-trifluoromethyl-phenyl)-amide]
> 50%	Oc1nnc(Cl)c2cc(NCc3cccc(C(F)(F)F)c3)ccc12 [Example 24, 4-chloro-6-(3-trifluoromethyl-benzylamino)-phthalazin-1-ol]
> 50%	O=c1[nH]nc(Cl)c2cc(N3CCN(c4ccccc4)CC3)ccc12 [Example 126, 4-Chloro-6-(4-phenyl-piperazin-1-yl)-2H-phthalazin-1-one]
> 50%	O=C(Nc1cccc(C(F)(F)F)c1)c1ccc2c(O)nnc(Cl)c2c1 [Example 26, 4-Chloro-1-hydroxy-phthalazine-6-carboxylic acid (3-trifluoromethyl-phenyl)-amide]
> 50%	O=c1[nH]nc(Cl)c2ccc(Nc3cccc(C(F)(F)F)c3)cc12 [Example 64, 4-Chloro-7-(3-trifluoromethyl-phenylamino)-2H-phthalazin-1-one]
